From patent US5840893A, “Compounds for treating infectious diseases” (priority 1996, dated 1998)
Several values for one entry are separate records, joined by “and”; a condition that tells them apart may be missing. Identical values can stand only once. Entries after “also recorded” stand apart in the source; their conditions may differ. Like-named read-outs stand apart in the source and are kept apart here.

Tests used:
[1] = test system: nuclear localization; details: literature; cited from earlier work
[2] = test system: Plasmodium falciparum clone HB3; experiment: Antimalarial activity in vitro, hypoxanthine incorporation, clone HB3; assay type: cell-based
Description: (§1) The antimalarial activity of the compounds was determined essentially as described in Desjardins et al. supra. Fifty Al of various concentrations of a compound of the invention, chloroquine, or pyrimethamine were added to the wells of microtiter plates, followed by 200 Al of ring-stage, synchronized, P. falciparum-infected erythrocytes (final hematocrit=1.5%, final parasitemia=1-5%). The plates were incubated for 24 hr in a candle jar kept at 37° C., and then 25 μl of [^3 H]-hypoxanthine (Amersham, Arlington Heights, Ill.; 2.5 μl Ci/well) was added. The plates were then incubated for a further 24 hr, before harvesting onto Unifilter-96 GF/C filter-microplates (Packard; Meriden, Conn.). Twenty-five μl of Microscint scintillation fluid (Packard) was added to each well of the filter-microplate, which was subsequently counted in a Top-count microplate scintillation counter (Packard). The percent of [^3 H] -hypoxanthine uptake relative to control infect-erythrocytes was used to determine the IC50 value for the compounds by non-linear regression for LD50 determination.

[3] = test system: Plasmodium falciparum clone FCR-3; experiment: Antimalarial activity in vitro, hypoxanthine incorporation, clone FCR-3; assay type: cell-based
Description: as §1

[4] = test system: Plasmodium falciparum clone D10; experiment: Antimalarial activity in vitro, hypoxanthine incorporation, clone D10; assay type: cell-based
Description: as §1

[5] = test system: Plasmodium falciparum; experiment: Antimalarial activity in vitro, hypoxanthine incorporation, series of clones; assay type: cell-based
Description: as §1

[6] = for Clearance: Table IV, measured in a 25 gr mouse
Description: (§4) Standard addition curves for each test compound were constructed by adding increased amounts of drug to mouse or human A^+ plasma (Long Island Blood Services; Melville, N.Y.). […] The eluted sample was reduced to dryness in a rotary evaporator and resuspended in 1.0 ml Buffer A.
(§5) Female ND4 Swiss Webster mice (21-24 g) were obtained from Harlan Sprague Dawley (Indianapolis, Ind.) and randomly placed in groups of five in cages with free access to food and water. […] The other CNI compounds were administered intraperitoneally or by oral gavage as a solution in water titrated with sufficient HCl to dissolve the drug. At various time points, ranging from 5 min to 4 days, a single group of animals was euthanized by carbon dioxide inhalation and bled by cardiac puncture using heparin as an anticoagulant. The blood from the five mice in the group was pooled and centrifuged at 14000×g for 10 min. The volume of plasma was measured, and equal volume of Buffer A added, and the mixture extracted and analyzed as described above, except that the dried eluates were resuspended in 200 μl Buffer A and 100 μl was injected onto the high performance liquid chromatography (HPLC) system.
(§6) The area under the plasma concentration-time curve (AUC) was determined, and bioavailability was measured as AUCoral /AUCi.p.. […] The volume of distribution (VD) was calculated as dose/B, and the total clearance rate (Cltot) calculated as β*VD. Cmax and tmax are the maximal plasma concentration and time of this measurement, respectively.

[7] = test system: mice; experiment: Toxicity study: median lethal dose in mice, i.p.; assay type: in vivo
Description: (§2) The doses of compounds of the invention found to be lethal to 50% of the mice (LD50) were determined by intraperitoneal injection of groups of five animals with increasing doses of each compound. CNI-0294 was administered from 0, 2, 10, 20, 40, 80, 160, 320, 640, 1280 mg/kg in 0.5 ml of water/HCl; CNI-1594 at 0, 2.4, 5, 10, 20, 40, 80 mg/kg in 0.5 ml of water/HCl; CNI-1794 at 0, 20, 50, 80 mg/kg in 0.5 ml of water/HCl; and CNI-1894 at 0, 10, 20, 40, 80, 240, 480, 960 mg/kg in water/HCl. […] The percentage of animals in each group which died were utilized to calculate the LD50 by non-linear curve fitting with the Enzfit software (Elsevier Bioscience; Cambridge, UK) programmed with the Chou equation (Chou 1976, J Theor Biol 39:253-276)).
(§3) The compounds (FIGS. 4A-E), were screened for toxicity via a modified LD50 assay procedure as described above in an outbred strain of mice.

[8] = Toxicity study: median lethal dose in mice, i.p.; assay type: in vivo; details: mouse, in vivo, ip
Description: as §2, §3

[9] = in vitro; assay type: in vitro ADME, mouse (ND4 Swiss Webster); details: for number of metabolites: mouse liver post-mitochondrial supernatant, NADPH; for metabolised at 1 h: mouse, liver post-mitochondrial supernatant, 60 min incubation, by peak area, read-out: drug altered (metabolic conversion)
Description: Several female ND4 Swiss Webster mice were euthanized by carbon dioxide inhalation and the livers excised and rinsed with ice cold phosphate buffered saline (pH 7.4). The livers were minced, gently homogenized in 50 mM phosphate buffer (pH 7.4) with a Dounce homogenizer, and centrifuged at 9600×g for 20 min. The post-mitochondrial supernatant was kept, glycerol added to 20%, and frozen at -70° C. in 1.0 ml aliquots until used. For each incubation, 1.0 ml of a 1.0 mg/ml drug solution was added to 3.0 ml of 50 mM phosphate buffer (pH 7.4), 1.0 ml of 2 mg/ml NADPH in 50 mM phosphate (pH 7.4), and 1.0 ml of the post-mitochondrial supernatant. Five hundred μl of each incubate was then immediately transferred to an ice-cold tube to provide the zero-time sample, and addition 500 μl aliquots removed to ice-cold tubes at 8, 15, 30, and 60 min. The samples were then extracted, and analyzed by HPLC as described in section 7.1. Control incubations were also performed where drug or post-mitochondrial supernatant was omitted. […] Peaks in the CNI compound incubations which increased over time, and were not present in control samples lacking the enzyme preparation were treated as putative metabolites.

[10] = test system: Plasmodium berghei; experiment: Four day suppression test in Plasmodium berghei infected mice; assay type: in vivo, Plasmodium berghei NYU-2 in female ND4 Swiss Webster mice
Description: FIG. 9. The activity of CNI-0294 against Plasmodium berghei infected mice. Female ND4 Swiss Webster mice were infected with infected erythrocytes and then treated once daily, for four days, with 50 mg/kg CNI-0294, or with distilled water. Six hours after the last dose, thin blood smears were made from each of the animals and the parasitemia was determined. The bars represent the median parasitemia (n=4 for controls and n=5 for treated).
The antimalarial activity of CNI-0294 in vivo was assessed by infecting female ND4 Swiss Webster mice with 100 μl of Plasmodium berghei NYU-2 infected mouse erythrocytes (50% parasitemia) by intraperitoneal injection. The animals were subsequently injected intraperitoneally once per day on days 1-4 of the infection with 0.5 ml water or 0.5 ml of 50 mg/kg CNI-0294 in water. Four hours after the final injection, small blood samples were taken from the tail, and thin smears stained with Dif-Quick (Baxter, Miami, Fla.). The parasitemia of control and treated animals was enumerated by inspection of at least 1000 erythrocytes in each animal.

[11] = test system: Plasmodium falciparum clone W2mef; experiment: Antimalarial activity in vitro, hypoxanthine incorporation, clone W2mef; assay type: cell-based
Description: as §1

[12] = in vivo; details: mouse, plasma
Description: as §4, §5, §6

[13] = test system: Plasmodium falciparum clone Dd2; experiment: Antimalarial activity in vitro, hypoxanthine incorporation, clone Dd2; assay type: cell-based; details: for IC50: Plasmodium falciparum
Description: as §1
The Dd2 clone of P. falciparum, which was both chloroquine and pyrimethamine resistant, was utilized to compare the antimalarial activity of the remaining CNI compounds (Table VIII).

[14] = test system: HIV-1; experiment: Inhibition of HIV-1 replication in cultured macrophages (Table I); assay type: cell-based; details: Human immunodeficiency virus 1, Macrophage; 50% inhibition of viral growth, RT or p24, macrophages
Description: A quantitative measurement of the activity of the compounds of the invention to block the replication of HIV-1 in non-dividing cells can be determined by culture of a macrophage-tropic strain of HIV-1 on peripheral blood-derived macrophages. The cells are cultured for 5-6 days prior to infection in a medium consisting of DMEM supplemented with 10% type A/B human serum and 200 U/ml Macrophage Colony Stimulating Factor, with half the medium changed after 3 days, to reach a density of about 10^6 cells per 5 ml well. A macrophage-tropic viral stock may be grown on these cells. The concentration of infectious particles in the stock is estimated by measurement of p24 antigen concentration.
To test the effect of compounds of the invention on HIV- 1 infection in the above-described culture system, the medium is removed and replaced with medium containing HIV-1 at a concentration of 1 ng of p24 (10^4 TCID50 /ml (TCID=tissue culture infectious doses)) and a known concentration of the compound of the invention (the inhibitor). After 24 hours, the cultures are washed to remove non-adherent virus and the culture is re-fed with medium containing the inhibitor at the desired concentration. The amount of replication of HIV-1 is estimated by an assay of the reverse transcriptase activity or by an assay of the concentration of p24 antigen in the culture medium every 2-3 days throughout the post-infection period. In a preferred embodiment the anti-HIV potency of the candidate drug is measured by comparison of the concentration of reverse transcriptase (RT) or of p24 antigen in the medium of the treated and control cultures at the time of the peak of these values in non-treated control cultures, that is about day 5 or 6 post-infection. Repetition at various levels of inhibitor allows for the calculation of the concentration of inhibitor that achieves 50% inhibition of viral growth, IC50. Table I discloses the IC50 of various inhibitors.

[15] = DD2, read-out: IC50 ± standard deviation

## Nc1nc2c(ncn2[C@@H]2O[C@H](COP(=O)(O)OP(=O)(O)OP(O)(O)=S)[C@@H](O)[C@H]2O)c(=O)[nH]1 [(γ-S)GTP]
[1]
  inhibition of nuclear localization: blocked

## CC(=O)c1cc(Nc2cc(C)[n+](C)c(N)n2)cc(C(C)=O)c1.[Cl-] [CNI-0294, 2-amino-4-(3,5-diacetylphenyl)amino-1,6-dimethylpyrimidinium chloride]
[2]; HB3, read-out: CNI-0294 IC50
  IC50: 1.79 ± 0.27 µM
[3]; FCR3, read-out: CNI-0294 IC50
  IC50: 3.09 ± 0.3 µM
[4]; D10, read-out: CNI-0294 IC50
  IC50: 4 ± 0.41 µM
[5]
  anti-malarial activity in vitro: considerable anti-malarial activity; also recorded: effective against various clones of P. falciparum
[5]; Plasmodium falciparum, series of cloned parasites, read-out: median inhibitory concentration (IC50)
  IC50: 1.79 to 4 µM
[6]; mouse, in vivo
  relative bioavailability: 6%
[6]; mouse, in vivo, 50 mg/kg
  relative bioavailability: 6%
[6]; mouse, in vivo, ip, 50 mg/kg
  A (zero time intercept, distribution phase): 14.00 and 16.07
  B (zero time intercept, elimination phase): 0.07 and 0.05
  Cltot: 62.70
  VD: 19.80
  duration of therapeutic plasma concentration (range of P. falciparum IC50): approximately one
  plasma maximal concentration: 18.76 to 18.93 µg/mL
  t1/2α: 0.62 and 0.40
  t1/2β: 4.62 and 3.65
  tmax: 5
  α: 1.12 and 1.74
  β: 0.19
[6]; mouse, in vivo, po, 50 mg/kg
  Bioavaliability: 0.06
  time drug was detectable in plasma: at least 6 hr
[7]
  signs and time of toxic reactions / death: no overt signs of toxicity detectable at doses approaching the LD50
  tolerability: very well tolerated; also recorded: well tolerated
[8]
  LD50: 588 ± 65.8 mg/kg
[9]
  number of metabolites: three minor and one major metabolite
  metabolised at 1 h: 43.5%
[10]; 50 mg/kg i.p. daily for 4 days
  suppression / cure of P. berghei infection: strongly suppress P. berghei infection in mice; also recorded: not completely cured
[10]; 50 mg/kg i.p. once daily for four days, P≤0.01
  reduction of parasitemia: 10 fold
[11]; read-out: CNI-0294 IC50
  IC50: 2.29 ± 0.22 µM
[12]; ip, 50 mg/kg
  CL/F: 35.4 mL/min
  Cmax: 18800 ng/mL
  Vd/F: 14.1 L
  k el: 4.17e-05 s⁻¹
[12]; po, 50 mg/kg
  Cmax: 400 ng/mL
[13]; DD2, read-out: CNI-0294 IC50
  IC50: 3.52 ± 0.1 µM
[13]; [15]
  IC50: 3.67 ± 0.57 µM

## CC(=O)c1cc(Nc2cc(C)nc(N)n2)cc(C(C)=O)c1 [Compound No. 11, 2-amino-4-(3,5-diacetylphenyl)amino-6-methylpyrimidine]
[6]
  Clearance: 16.50 mL/min
[6]; i.p., 50 mg/kg, water
  A (zero time intercept, distribution phase): 5.22 µg/mL
  B (zero time intercept, elimination phase): 0.14 µg/mL
  t1/2α: 0.38 h
  t1/2β: 3.65 h
  α: 1.83 h⁻¹
[6]; oral 50 mg/kg
  time drug was detectable in plasma: at least 6 hr
[6]; oral vs i.p.
  relative bioavailability: 15%
[6]; oral, 50 mg/kg, water, AUCoral/AUCi.p.
  Bioavaliability: 0.15
[6]; single 50 mg/kg dose, AUCoral against AUCi.p.
  relative bioavailability: 15%
[7]
  LD50 (median lethal dose): > 160 mg/kg
  tolerability: also well tolerated
[9]
  number of metabolites: three minor and one major metabolite
  metabolised at 1 h: 65.2%
[12]; ip, 50 mg/kg
  CL/F: 16.5 mL/min
  k el: 5.28e-05 s⁻¹
[14]
  IC50: 0.05 µM
[13]; [15]
  IC50: 20.3 ± 1.62 µM
[13]; clone Dd2
  fold less active than CNI-0294: approximately 5 fold

## CC(=O)c1cccc(Nc2cc(C)nc(N)n2)c1 [Compound No. 15, 4-(3-acetylphenyl)amino-2-amino-6-methylpyrimidine]
[6]
  Clearance: 26.40 mL/min
[6]; i.p., 20 mg/kg, water
  A (zero time intercept, distribution phase): 1.10 µg/mL
  B (zero time intercept, elimination phase): 0.01 µg/mL
  VD: 39.60 L
  t1/2α: 0.32 h
  t1/2β: 17.33 h
  α: 2.14 h⁻¹
[7]
  LD50 (median lethal dose): 49.04 ± 0.08 mg/kg
  tolerability: appreciably more lethal
[7]; listed as CNI-1594
  signs and time of toxic reactions / death: death occurring in minutes and the animals displaying signs of acute neurotoxicity; also recorded: suggested a lethal neurotoxicity
[9]
  number of metabolites: three minor and one major metabolite
  metabolised at 1 h: 11.7%
[12]; ip, 20 mg/kg
  CL/F: 26.4 mL/min
  k el: 1.11e-05 s⁻¹
[14]
  IC50: 0.015 µM
[13]; [15]
  IC50: 23.7 ± 0.59 µM
[13]; clone Dd2
  IC50 relative to CNI-1194 and CNI-4594: equal to that for CNI-1194 or CNI-4594

## CCc1nc(N)nc(N)c1-c1ccc(Cl)cc1 [Pyrimethamine, reference compound]
[2]; clone HB3, n = 2, read-out: Pyrimethamine IC50
  IC50: 8.97 ± 2.75 µM
[3]; FCR3, clone FCR-3, n = 2, read-out: Pyrimethamine IC50
  IC50: 0.04 ± 0.01 µM
[4]; clone D10, n = 2, read-out: Pyrimethamine IC50
  IC50: 171 ± 24.6 µM
[11]; read-out: Pyrimethamine IC50
  IC50: 17.8 ± 13.5 µM
[13]; DD2, read-out: Pyrimethamine IC50
  IC50: 104 ± 9.79 µM
